Experimental data: patent US20240000795A1, “METHODS AND COMPOSITIONS RELATING TO CONTROLLING PSYCHEDELIC EFFECTS WITH SEROTONIN RECEPTOR MODULATORS” (Terran Biosciences Inc., priority 2022, published 2024)
“Also recorded” adds a separate entry of the source.

Legend:
5-HT2A receptors [1] = molecular target: T1, 5-HT2A receptors (Mus musculus, UniProt P35363); assay: Psilocybin-induced head twitch response in mice, 5-HT2A antagonist given i.v. after psilocybin; format: in vivo, C57BL/6J mice; parameters: widely used to explore the effect of treatments on 5-HT2A receptors in vivo; from tissue; host or cells: whole living male C57BL/6J mice (behavioural read-out); details: for head-twitch response (cumulative head-twitches): psilocybin 2 mg/kg i.p., monitored until 40 min after agonist dosing; for Result (Psilocybin Combinations tested, summary): summary of Examples 1-17
T1 sequence (P35363 whole entry): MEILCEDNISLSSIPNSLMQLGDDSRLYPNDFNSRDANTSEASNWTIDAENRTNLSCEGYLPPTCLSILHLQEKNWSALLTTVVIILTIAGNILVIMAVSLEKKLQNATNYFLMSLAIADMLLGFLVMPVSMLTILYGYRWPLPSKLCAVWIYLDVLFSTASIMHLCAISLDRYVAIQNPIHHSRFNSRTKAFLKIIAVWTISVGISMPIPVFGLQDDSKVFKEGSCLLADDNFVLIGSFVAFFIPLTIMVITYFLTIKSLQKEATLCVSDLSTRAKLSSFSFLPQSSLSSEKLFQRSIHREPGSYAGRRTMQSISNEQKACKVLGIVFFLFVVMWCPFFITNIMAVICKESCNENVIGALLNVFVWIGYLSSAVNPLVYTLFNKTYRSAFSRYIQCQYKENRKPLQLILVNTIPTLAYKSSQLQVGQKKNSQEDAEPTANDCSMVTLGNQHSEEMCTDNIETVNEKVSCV
Source text: (§1) See, Keller and Umbreit, Science, 1956, 124: 723). […] The head-shake response is elicited by a wide variety of known hallucinogens such as LSD, psilocybin, psilocin, N,N-dimethyltryptamine (DMT), and mescaline as well as serotonin-releasing agents and direct 5-HT2 agonists. See, Canal and Morgan, Drug Test Anal., 2012, 4, 556-576 2012. 2,5-dimethoxy-4-iodoamphetamine (DOI) has also been reported to elicit head shakes in rats (see Amt and Hyttel Eur. J. Pharmacol., 1989, 161:45; also see Kennett et al., Br. J. Pharmacol., 1994, 111: 797-802) and head-twitches in mice (see Darmani et al., Pharmacol. Biochem. Behav., 1990, 36: […]), both of which were blocked by administration of the fairly selective 5-HT2A antagonist ketanserin. Later studies have confirmed 5-HT2A receptors are the primary, direct mediators of the response and that the headshake response in rats is essentially the same as head-twitches in mice, at least in regards to similarity in appearance and 5-HT2A receptor dependence. See, Canal and Morgan, Drug Test Anal., 2012, 4, 556-576 2012.
Male C57BL/6J mice (approximately 25 g) was group housed in stock room B20D of the Saretius animal at the University of Reading. Animals was maintained under a 12 h light/dark cycle, at 23° C. with humidity controlled
(§2) At T=−60 min, C57BL/6J mice were individually housed into transparent observation cages with bedding removed and left to habituate. At T=−3 min, mice were placed into heated cages at 40° C. At T=0 h, groups of 3 mice were dosed intraperitoneally with psilocybin (2 mg/kg). Following dosing, mice were replaced into the heated cages and head-twitch responses continuously scored for 7 min. After 7 min, mice were intravenously dosed via the lateral tail vein with either vehicle 1 (saline) or volinanserin 1 mg/kg in 5 mL/kg dosing volumes. Mice were replaced into the observation cages and head twitch behavior were monitored until 40 min after agonist dosing. Cumulative head-twitches were measured every 2 minutes until 40 minutes after agonist dosing.
as §2, with “min. […]” for “min. After 7 min, mice were intravenously dosed via the lateral tail vein with either vehicle 1 (saline) or volinanserin 1 mg/kg in 5 mL/kg dosing volumes.”, “behavior was” for “behavior were”, “Cumulative head-twitch behavior was” for “Cumulative head-twitches were”
as §2, with “min. […]” for “min. After 7 min, mice were intravenously dosed via the lateral tail vein with either vehicle 1 (saline) or volinanserin 1 mg/kg in 5 mL/kg dosing volumes.”, “behavior was” for “behavior were”, “Cumulative head-twitch behavior was” for “Cumulative head-twitches were”
as §2, with “min. […]” for “min. After 7 min, mice were intravenously dosed via the lateral tail vein with either vehicle 1 (saline) or volinanserin 1 mg/kg in 5 mL/kg dosing volumes.”, “behavior was” for “behavior were”, “Cumulative head-twitch behavior was” for “Cumulative head-twitches were”

5-HT2A receptors [2] = molecular target: T1, 5-HT2A receptors; assay: LSD-induced head twitch response in mice, 5-HT2A antagonist given i.v. after LSD; format: in vivo, C57BL/6J mice; parameters: widely used to explore the effect of treatments on 5-HT2A receptors in vivo; from tissue; host or cells: whole living male C57BL/6J mice (behavioural read-out); details: for head-twitch response (cumulative head-twitches): LSD 0.32 mg/kg i.p., monitored until 40 min after agonist dosing; for Result (LSD Combinations tested, summary): summary of Examples 1-17, antagonist administered after LSD
Source text: as §1
Male C57BL/6J mice (approximately 25 g) was group housed in stock room B20D of the Saretius animal at the University of Reading. […]
as §2, with “At T=−2” for “At T=−3”, “with LSD (0.32” for “with psilocybin (2”, “for 8” for “for 7”, “After 8” for “After 7”, “Cumulative head-twitch behavior was” for “Cumulative head-twitches were”
At T=−60 min, C57BL/6J mice were individually housed into transparent observation cages with bedding removed and left to habituate. At T=−2 min, mice were placed into heated cages at 40° C. At T=0 h, groups of 3 mice were dosed intraperitoneally with LSD (0.32 mg/kg).

5-HT2A receptors [3] = molecular target: T2, 5-HT2A receptors (Rattus norvegicus, UniProt P14842); details: rats; 2,5-dimethoxy-4-iodoamphetamine (DOI); cited from earlier work
T2 construct: has also been reported to elicit head shakes in rats; host or cells: living rats (cited studies)
T2 sequence (P14842 whole entry): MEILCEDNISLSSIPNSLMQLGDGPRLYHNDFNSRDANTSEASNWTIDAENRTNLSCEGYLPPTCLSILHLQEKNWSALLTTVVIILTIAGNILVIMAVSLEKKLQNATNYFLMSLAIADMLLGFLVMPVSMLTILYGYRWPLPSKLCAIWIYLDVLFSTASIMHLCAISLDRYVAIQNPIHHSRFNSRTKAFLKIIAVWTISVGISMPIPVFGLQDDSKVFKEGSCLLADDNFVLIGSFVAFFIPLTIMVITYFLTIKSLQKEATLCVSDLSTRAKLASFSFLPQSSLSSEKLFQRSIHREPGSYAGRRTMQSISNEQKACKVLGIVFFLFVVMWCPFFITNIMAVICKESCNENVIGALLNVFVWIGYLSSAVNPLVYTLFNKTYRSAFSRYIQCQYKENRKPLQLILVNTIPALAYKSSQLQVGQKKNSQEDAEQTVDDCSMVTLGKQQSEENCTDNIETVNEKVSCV

5-HT2A receptors [4] = molecular target: T1, 5-HT2A receptors; parameters: head-twitches in mice (see Darmani et al., Pharmacol. Biochem. Behav., 1990); host or cells: living mice (cited study); details: mice; 2,5-dimethoxy-4-iodoamphetamine (DOI); cited from earlier work
[5] = background; compared with a therapy session of up to several hours; cited from earlier work
[6] = system: psilocybin induced head twitches in mice; details: psilocybin 2 mg/kg i.p.; quetiapine 1 mg/kg i.v. after T=7 minutes; cumulative head twitches until 40 minutes
Procedure: Mice were dosed intraperitoneally with psilocybin (2 mg/kg) and head-twitch responses were continuously scored for 7 minutes. […] Cumulative head-twitch behavior was measured every 2 minutes until 40 minutes after agonist dosing.

[7] = antagonist 1 mg/kg i.v. after 7 min
[8] = antagonist administered after psilocybin
[9] = antagonist 1 mg/kg i.v. after 8 min
[10] = antagonist 4 mg/kg i.v. after 7 min

Compound: COc1cccc([C@H](O)C2CCN(CCc3ccc(F)cc3)CC2)c1OC [volinanserin]
- head-twitch response (cumulative head-twitches) (5-HT2A receptors [1]; [7]): completely suppressed
- Result (Psilocybin Combinations tested, summary) (5-HT2A receptors [1]; [8]): full ending
- Result (Psilocybin Combinations tested, summary) (5-HT2A receptors [1]; antagonist administered after psilocybin, listed as Volinanserin): Full suppression of head twitch
- head-twitch response (cumulative head-twitches) (5-HT2A receptors [2]; antagonist 1 mg/kg i.v. after 5 min): completely suppressed
- head-twitch response (cumulative head-twitches) (5-HT2A receptors [2]; [9]): completely suppressed
- head-twitch response (cumulative head-twitches) (5-HT2A receptors [2]; antagonist 1 mg/kg i.v. after 10 min): completely suppressed
- Result (LSD Combinations tested, summary) (5-HT2A receptors [2]): full suppression

Compound: O=c1[nH]c2ccccc2n1CCN1CCN(c2cccc(C(F)(F)F)c2)CC1 [flibanserin]
- head-twitch response (cumulative head-twitches) (5-HT2A receptors [1]; [7]): partially suppressed
- head-twitch response (cumulative head-twitches) (5-HT2A receptors [1]; [10]): partially suppressed
- Result (Psilocybin Combinations tested, summary) (5-HT2A receptors [1]; [8]): partial suppression
- Result (Psilocybin Combinations tested, summary) (5-HT2A receptors [1]; antagonist administered after psilocybin, listed as Flibanserin): Partial suppression of head twitch
- head-twitch response (cumulative head-twitches) (5-HT2A receptors [2]; [9]): partially suppressed
- head-twitch response (cumulative head-twitches) (5-HT2A receptors [2]; antagonist 4 mg/kg i.v. after 8 min): partially suppressed
- Result (LSD Combinations tested, summary) (5-HT2A receptors [2]): partial suppression
- Result (LSD Combinations tested, summary) (5-HT2A receptors [2]; listed as Flibanserin): Partial suppression of head twitch

Compound: COc1ccc(NC(=O)Nc2ccc(F)cc2F)cc1-c1c(Br)cnn1C [nelotanserin]
- head-twitch response (cumulative head-twitches) (5-HT2A receptors [1]; [7]): partially suppressed
- head-twitch response (cumulative head-twitches) (5-HT2A receptors [1]; [10]): completely suppressed; also recorded: completed suppressed
- Result (Psilocybin Combinations tested, summary) (5-HT2A receptors [1]; [8]): partial suppression
- Result (Psilocybin Combinations tested, summary) (5-HT2A receptors [1]; antagonist administered after psilocybin, listed as Nelotanserin): Partial suppression of head twitch,
- Result (Psilocybin Combinations tested, summary) (5-HT2A receptors [1]; at high dose): full suppression at high dose
- head-twitch response (cumulative head-twitches) (5-HT2A receptors [2]; [9]): partially suppressed
- Result (LSD Combinations tested, summary) (5-HT2A receptors [2]): partial suppression
- Result (LSD Combinations tested, summary) (5-HT2A receptors [2]; listed as Nelotanserin): Partial suppression of head twitch

Compound: Cc1nc2sccn2c(=O)c1CCN1CCC(=C(c2ccc(F)cc2)c2ccc(F)cc2)CC1 [ritanserin]
- head-twitch response (cumulative head-twitches) (5-HT2A receptors [1]; [7]): completely suppressed
- Result (Psilocybin Combinations tested, summary) (5-HT2A receptors [1]; [8]): full ending
- Result (Psilocybin Combinations tested, summary) (5-HT2A receptors [1]; antagonist administered after psilocybin, listed as Ritanserin): Full suppression of head twitch
- head-twitch response (cumulative head-twitches) (5-HT2A receptors [2]; [9]): partially suppressed
- Result (LSD Combinations tested, summary) (5-HT2A receptors [2]): full suppression
- Result (LSD Combinations tested, summary) (5-HT2A receptors [2]; listed as Ritanserin): Full suppression of head twitch

Compound: N#Cc1c[nH]c2c(C(=O)N3CCN(CCc4ccc(F)cc4)CC3)cccc12 [pruvanserin]
- head-twitch response (cumulative head-twitches) (5-HT2A receptors [1]; [7]): completely suppressed
- Result (Psilocybin Combinations tested, summary) (5-HT2A receptors [1]; [8]): full ending
- Result (Psilocybin Combinations tested, summary) (5-HT2A receptors [1]; antagonist administered after psilocybin, listed as Pruvanserin): Full suppression of head twitch
- head-twitch response (cumulative head-twitches) (5-HT2A receptors [2]; [9]): completely suppressed
- Result (LSD Combinations tested, summary) (5-HT2A receptors [2]): full suppression
- Result (LSD Combinations tested, summary) (5-HT2A receptors [2]; listed as Pruvanserin): Full suppression of head twitch

Compound: O=C(c1ccc(F)cc1)C1CCN(CCn2c(=O)[nH]c3ccccc3c2=O)CC1 [ketanserin]
- head-twitch response (cumulative head-twitches) (5-HT2A receptors [1]; antagonist 2 mg/kg i.v. after 7 min): completely suppressed
- DOI-elicited head shakes (5-HT2A receptors [3]): blocked
- head-twitch response (cumulative head-twitches) (5-HT2A receptors [2]; antagonist 2 mg/kg i.v. after 8 min): completely suppressed
- DOI-elicited head-twitches (5-HT2A receptors [4]): blocked

Compound: CCN(CC)C(=O)[C@@H]1C=C2c3cccc4[nH]cc(c34)C[C@H]2N(C)C1 [LSD]
- duration of effects [5]: 12 h

Compound: OCCOCCN1CCN(C2=Nc3ccccc3Sc3ccccc32)CC1 [quetiapine]
- head-twitch response [6]: completely suppressed
